Experimental data as given in PMC11678245, “The Molecular Basis of the Intrinsic and Acquired Resistance to Azole Antifungals in Aspergillus fumigatus” (Journal of Fungi, 2024).
Several values for one entry are separate records, joined by “and”; a condition that tells them apart may be missing. Identical values can stand only once. Entries after “also recorded” stand apart in the source; their conditions may differ. Like-named read-outs stand apart in the source and are kept apart here.

Key:
AfCYP51B-6×His [1] = target: T1, AfCYP51B-6×His (Aspergillus fumigatus, UniProt E9QY26); assay: Type I binding of substrates (difference spectra); conditions: for ΔAmax (type I binding): AfCYP51B-6×His 5 μM, Michaelis–Menten equation
T1 sequence (E9QY26 1-524): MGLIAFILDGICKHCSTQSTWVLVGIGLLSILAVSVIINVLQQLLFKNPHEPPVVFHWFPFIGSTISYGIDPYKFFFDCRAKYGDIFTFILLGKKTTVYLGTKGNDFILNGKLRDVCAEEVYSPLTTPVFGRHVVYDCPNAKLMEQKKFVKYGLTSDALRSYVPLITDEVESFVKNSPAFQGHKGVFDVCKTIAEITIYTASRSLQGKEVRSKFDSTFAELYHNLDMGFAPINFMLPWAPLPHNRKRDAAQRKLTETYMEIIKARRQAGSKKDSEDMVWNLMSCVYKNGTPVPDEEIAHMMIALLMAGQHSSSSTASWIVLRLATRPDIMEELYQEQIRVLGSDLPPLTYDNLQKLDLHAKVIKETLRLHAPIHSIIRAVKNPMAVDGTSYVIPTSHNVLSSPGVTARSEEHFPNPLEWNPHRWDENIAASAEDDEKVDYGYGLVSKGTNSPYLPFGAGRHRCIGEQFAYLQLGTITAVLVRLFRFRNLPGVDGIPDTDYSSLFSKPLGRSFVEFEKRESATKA
Protocol: (§1) The concentration of AfCYP51A and AfCYP51B, purified using Ni-NTA affinity chromatography and used for the spectrophotometric type I and type II binding assays, was calculated using an extinction co-efficient of λ417nm = 117 mM^−1 cm^−1 applied to the absolute absorption spectrum of the preparations. In addition, the amount of “active” cytochrome P450 enzyme was determined using the carbon monoxide (CO) binding spectra of these preparations.
(§2) Type I binding of substrates lanosterol and eburicol in the active site of the Ni-NTA affinity-purified AfCYP51A and AfCYP51B enzymes was assessed using the method of Warrilow et al.. Titrations of 5 μM AfCYP51-6×His protein with lanosterol or eburicol (1 to 250 μM) were measured using a Cary 300 UV–Visible Spectrophotometer (Agilent Technologies, Santa Clara, CA, USA). Substrate saturation curves were constructed by plotting the maximal ∆Apeak−trough obtained between 350 and 500 nm, allowing for a change in the reaction volume during the titration. The substrate binding constant (KS) was calculated by nonlinear regression (Levenberg–Marquardt algorithm) applied to the Michaelis–Menten equation or the Hill equation. GraphPad Prism 9.2.0 software was used to identify the best fit for the data.

AfCYP51A-6×His [2] = target: T2, AfCYP51A-6×His (Aspergillus fumigatus, UniProt Q4WNT5); assay: Type I binding of substrates (difference spectra); design: Full-length codon-optimised AfCYP51A-6×His and AfCYP51B-6×His were constitutively co-expressed; made in house; conditions: AfCYP51A-6×His 5 µM, concentrations up to 300 μM
Protocol: as §1
as §2, with “Titrations of 5 μM AfCYP51-6×His protein with lanosterol or eburicol (1 to 250 μM) were measured using a Cary 300 UV–Visible Spectrophotometer (Agilent Technologies, Santa Clara, CA, USA).” left out

[3] = tested on: S. cerevisiae strain ADLS overexpressing ScCYP51-6×His; assay: MIC80 susceptibility, strain ADLS; assay type: cell-based, Saccharomyces cerevisiae; conditions: Saccharomyces cerevisiae; Table 2; strain ADLS; SD pH 6.8, 48 h, 30 °C; ± SD; read-out: MIC80
Protocol: (§3) The susceptibilities of S. cerevisiae strains to antifungal drugs were determined as minimum growth inhibitory concentration (MIC) values in 200 μL SD pH 6.8 [24]. Serial 2-fold dilutions of 100 μL of azole or control drugs in SD pH 6.8 were prepared in a 96-well microtiter plate. A portion of a 2 mL SD pH 6.8 overnight culture of the test strain was inoculated into 3 mL fresh SD pH 6.8 and incubated for 4 to 6 h at 30 °C to generate logarithmic-phase cells. These cells were then diluted with fresh SD pH 6.8 to OD600nm = 0.01 (3 × 10^4 CFU), and 100 μL of this cell suspension was added to microtiter plate wells. Cell growth after 48 h incubation at 30 °C with shaking at 200 rpm was determined at 600 nm using a BioTek™ Synergy™ 2 multi-Mode microplate reader controlled using Gen5™ Data Analysis Software version 3.16.10 (BioTek Instruments, Winooski, VT, USA). MIC80 values (80% growth inhibition in the presence of the test drug compared with the untreated control) for each yeast construct were determined as technical triplicates repeated three times for three separate clones.

[4] = tested on: S. cerevisiae strain AR (AfCyp51A-6×His, AfCprA2-6×His); assay: MIC80 susceptibility, strain AR; assay type: cell-based, Saccharomyces cerevisiae
Protocol: as §3

[5] = tested on: S. cerevisiae strain ARE Y121F (AfCyp51A-6×His Y121F, AfCprA2, AfErg6-FLAG); assay: MIC80 susceptibility, strain Y121F; assay type: cell-based, Saccharomyces cerevisiae; conditions: Saccharomyces cerevisiae, ± SD, read-out: MIC80
Protocol: as §3

[6] = tested on: S. cerevisiae strain ARE I301T (AfCyp51A-6×His I301T, AfCprA2, AfErg6-FLAG); assay: MIC80 susceptibility, strain I301T; assay type: cell-based, Saccharomyces cerevisiae; conditions: Saccharomyces cerevisiae, ± SD, read-out: MIC80
Protocol: as §3

AfCYP51A-6×His [7] = target: T2, AfCYP51A-6×His; assay: Type II binding of azole drugs (difference spectra); conditions: AfCYP51A
Protocol: as §1
(§4) Type II binding difference spectra were obtained using 1 μM of affinity-purified CYP51 enzymes. VCZ, PCZ, VT-1161, DCZ, and MCF working solutions were prepared in DMSO, while FLC was prepared in Milli-Q water. Azole drugs were added to the sample cuvette, and corresponding amounts of DMSO or Milli-Q water were added to the reference cuvette. Drug binding curves were plotted using the difference spectrum peak and trough detected in the range of 410–425 nm. Dissociation constants (Kd) were determined by nonlinear regression (Levenberg–Marquardt algorithm) of the difference in absorbance between the peak and trough against the azole concentration using a rearrangement of the Morrison equation or the Hill equation [7]. GraphPad Prism 9.2.0 software was used to identify the best fit for the data.

AfCYP51B-6×His [8] = target: T1, AfCYP51B-6×His; assay: as above
Protocol: as §1, §4

[9] = tested on: S. cerevisiae strain BRE (AfCyp51B-6×His, AfCprA2, AfErg6-FLAG); assay: MIC80 susceptibility, strain BRE; assay type: cell-based, Saccharomyces cerevisiae; conditions: Saccharomyces cerevisiae, strain BRE, ± SD, read-out: MIC80
Protocol: as §3

[10] = tested on: S. cerevisiae strain ADΔΔ (native ScCYP51); assay: MIC80 susceptibility, host strain ADΔΔ; assay type: cell-based; conditions: Saccharomyces cerevisiae, Table 2, SD pH 6.8, 48 h, 30 °C
Protocol: as §3

[11] = tested on: S. cerevisiae strain ARE T289A (AfCyp51A-6×His T289A, AfCprA2, AfErg6-FLAG); assay: MIC80 susceptibility, strain T289A; assay type: cell-based, Saccharomyces cerevisiae; conditions: for MIC80: Saccharomyces cerevisiae, ± SD, read-out: MIC80
Protocol: as §3

[12] = tested on: S. cerevisiae strain B (AfCyp51B-6×His, native ScCyp51 retained); assay: MIC80 susceptibility, strain B; assay type: cell-based; conditions: Saccharomyces cerevisiae, Table 2, SD pH 6.8, 48 h, 30 °C
Protocol: as §3

[13] = tested on: S. cerevisiae strain A (AfCyp51A-6×His, native ScCyp51 retained); assay: MIC80 susceptibility, strain A; assay type: cell-based; conditions: Saccharomyces cerevisiae, Table 2, SD pH 6.8, 48 h, 30 °C
Protocol: as §3

[14] = tested on: S. cerevisiae strain BR (AfCyp51B-6×His, AfCprA2-6×His); assay: MIC80 susceptibility, strain BR; assay type: cell-based; conditions: Saccharomyces cerevisiae; Table 2; strain BR; SD pH 6.8, 48 h, 30 °C; ± SD; read-out: MIC80
Protocol: as §3

[15] = tested on: S. cerevisiae strain ARE Y121F T289A (AfCyp51A-6×His Y121F T289A, AfCprA2, AfErg6-FLAG); assay: MIC80 susceptibility, strain Y121F T289A; assay type: cell-based, Saccharomyces cerevisiae; conditions: Saccharomyces cerevisiae, ± SD, read-out: MIC80
Protocol: as §3

[16] = tested on: S. cerevisiae strain ARE (AfCyp51A-6×His, AfCprA2, AfErg6-FLAG); assay: MIC80 susceptibility, strain ARE; assay type: cell-based, Saccharomyces cerevisiae; conditions: Saccharomyces cerevisiae; Table 3; strain ARE; ± SD; read-out: MIC80
Protocol: as §3

[17] = type II binding, 1 μM enzyme, Hill equation

T2 sequence (Q4WNT5 whole entry): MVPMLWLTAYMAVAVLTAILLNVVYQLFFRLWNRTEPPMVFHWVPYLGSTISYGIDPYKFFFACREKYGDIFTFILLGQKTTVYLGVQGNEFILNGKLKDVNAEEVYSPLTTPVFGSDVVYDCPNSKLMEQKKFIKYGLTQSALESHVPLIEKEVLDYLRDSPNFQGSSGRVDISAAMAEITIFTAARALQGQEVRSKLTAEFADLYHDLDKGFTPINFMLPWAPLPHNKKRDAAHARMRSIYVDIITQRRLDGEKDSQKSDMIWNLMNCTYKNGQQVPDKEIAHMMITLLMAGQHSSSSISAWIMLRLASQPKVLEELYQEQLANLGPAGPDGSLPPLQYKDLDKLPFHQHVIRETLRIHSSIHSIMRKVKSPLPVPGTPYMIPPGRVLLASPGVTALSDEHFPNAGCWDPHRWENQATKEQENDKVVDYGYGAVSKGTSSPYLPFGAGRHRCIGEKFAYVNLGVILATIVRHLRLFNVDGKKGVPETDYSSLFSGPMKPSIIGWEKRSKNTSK

C=C(CC[C@@H](C)[C@H]1CC[C@@]2(C)C3=C(CC[C@]12C)[C@@]1(C)CC[C@H](O)C(C)(C)C1CC3)C(C)C (some centres unmarked) [Eburicol, eburicol]
Kd (AfCYP51B-6×His [1]): 71000 nM
type I binding spectrum peak (AfCYP51B-6×His [1]; AfCYP51B-6×His): 387 nm
type I binding spectrum trough (AfCYP51B-6×His [1]; AfCYP51B-6×His): 422 nm
ΔAmax (type I binding) (AfCYP51B-6×His [1]): 0.161
ΔAmax (type I binding) (AfCYP51B-6×His [1]; listed as eburicol): 0.16
affinity of AfCYP51B for eburicol versus lanosterol (AfCYP51B-6×His [1]; ratio of Ks values): at least 6 fold
type I binding response (AfCYP51A-6×His [2]): did not give the expected type I binding response; also recorded: did not give a type I binding response

CC[C@@H]([C@H](C)O)n1ncn(-c2ccc(N3CCN(c4ccc(OC[C@@H]5CO[C@@](Cn6cncn6)(c6ccc(F)cc6F)C5)cc4)CC3)cc2)c1=O [PCZ, posaconazole]
MIC80 [3]: 0.29 ± 0.04 µM
MIC80 ([4]; Saccharomyces cerevisiae, 48 h, pH 6.8): 0.19 ± 0.01 µM
MIC80 ([4]; Table 2, strain AR, SD pH 6.8, 48 h, 30 °C, ± SD): 0.19 ± 0.02 µM
MIC80 ([5]; Table 2, strain Y121F, SD pH 6.8, 48 h, 30 °C): 0.06 ± 0.01 µM
MIC80 ([5]; Table 3, strain ARE Y121F): 0.025 ± 0.003 µM
MIC80 ([6]; 48 h, pH 6.8, Table 2, strain I301T, SD pH 6.8, 48 h, 30 °C): 0.09 ± 0.02 µM
MIC80 ([6]; Table 3, strain ARE I301T): 0.055 ± 0.001 µM
λpeak (type II difference spectrum) (AfCYP51A-6×His [7]; 1 μM enzyme): 423 nm
λtrough (type II difference spectrum) (AfCYP51A-6×His [7]; 1 μM enzyme): 395 nm
ΔAmax (type II binding) (AfCYP51A-6×His [7]; 1 μM enzyme, Hill equation): 0.07
Hill Number (AfCYP51A-6×His [7]; type II binding): 1.35
Kd (AfCYP51A-6×His [7]; [17]): 1700 nM and 1720 nM
λtrough (type II difference spectrum) (AfCYP51B-6×His [8]; 1 μM enzyme): 388 nm
ΔAmax (type II binding) (AfCYP51B-6×His [8]; 1 μM enzyme, Hill equation): 0.10
Hill Number (AfCYP51B-6×His [8]; type II binding): 1.41
Kd (AfCYP51B-6×His [8]; [17]): 2100 nM and 2150 nM
MIC80 ([9]; Table 2, SD pH 6.8, 48 h, 30 °C): 0.1 ± 0.01 µM
MIC80 ([9]; Table 3): 0.06 ± 0.037 µM
MIC80 [10]: 0.1 ± 0.01 µM
increase in susceptibility of strain T289A compared to strains ARE and ADΔΔ [11]: 40%
MIC80 ([11]; 48 h, pH 6.8, Table 2, strain T289A, SD pH 6.8, 48 h, 30 °C): 0.06 µM
MIC80 ([11]; Table 3, strain ARE T289A): 0.043 ± 0.019 µM
MIC80 [12]: 0.25 ± 0.03 µM
MIC80 [13]: 0.21 ± 0.01 µM
MIC80 [14]: 0.17 ± 0.02 µM
MIC80 ([15]; Table 2, strain Y121F T289A, SD pH 6.8, 48 h, 30 °C): 0.11 ± 0.01 µM
MIC80 ([15]; Table 3, strain ARE Y121F T289A): 0.101 ± 0.017 µM
MIC80 [16]: 0.05 ± 0.017 µM
